One data set relates to Cryptosporidium parvum. The data set is described as follows: qRT-PCR assay of the growth of C. parvum in vitro in HCT-8 host cells (primary and secondary screening, EC50). The format is cell-based. The settings on record: Cryptosporidium parvum, HCT-8; primary screening at 10 uM; read-out: Inhibition (%). (In general: Real-time PCR tracks product formation cycle by cycle.)
The next data set in a line: in vitro. The settings on record: for cytotoxicity at 41 h, 10 µM: human.
Setting [1] is: primary screening at 10 uM, treated vs control.

The record followed here is article PMC6736568, “Discovery of Novel Anti-cryptosporidial Activities From Natural Products by in vitro High-Throughput Phenotypic Screening” (Frontiers in Microbiology, 2019).

Where a name gives a salt, the structure may show the parent alone. Read-outs that look alike come from different tables or passages of the source.

As usually defined, the inhibition is the drop in the measured response relative to a control, in per cent. For the compound `N=C(N)NCCCCN` [AGMATINE SULFATE], the inhibition at 10 µM in the data set with Cryptosporidium parvum is -2.93%. Besides, the cytotoxicity at 10 µM in “in vitro” came to 13.5%. Besides, in the data set on HCT-8 host cells (Hs18S) (setting [1]), the “Hs18S ΔCT” value came out at 0.21.
As to `CC[C@H]1[C@@H]2C[C@H]3[C@@H]4N(C)c5ccccc5[C@]45C[C@@H]([C@H]2[C@H]5O)N3[C@@H]1O` [AJMALINE], in the data set with Cryptosporidium parvum, the inhibition at 10 µM was -1.24%. In addition, the cytotoxicity at 10 µM in the data set “in vitro” was 6.9%. Moreover, in the data set on HCT-8 host cells (Hs18S) (setting [1]), the “Hs18S ΔCT” value came to 0.10.
On the same counts, the results for `O=C1c2ccccc2C(=O)c2c1ccc(O)c2O` [ALIZARIN] are -42.4%, -9.1% and -0.13.
As for `NC(=O)NC1NC(=O)NC1=O` (stereo not drawn) [ALLANTOIN], in the data set on Cryptosporidium parvum, the inhibition at 10 µM is 8.13%. In addition, the cytotoxicity at 41 h, 10 µM in “in vitro” is -16.1%. Further, the “Hs18S ΔCT” value in the data set on HCT-8 host cells (Hs18S) (human, 41 h, 10 μM) is given as -0.22.
Consider `CC(=O)[C@H]1CC[C@H]2[C@@H]3CC[C@H]4C[C@H](O)CC[C@]4(C)[C@H]3CC[C@]12C` [ALLOPREGNANOLONE], for which the inhibition at 10 µM in the data set on Cryptosporidium parvum is -52.5%. Further, in the data set “in vitro”, the cytotoxicity at 10 µM was 1.3%. In addition, in the data set with HCT-8 host cells (Hs18S) (setting [1]), the “Hs18S ΔCT” value turned out to be 0.02.
Take `C=CCN=C=S` [ALLYLISOTHIOCYANATE]: the inhibition at 10 µM in the data set on Cryptosporidium parvum was 25.7%. Also, the cytotoxicity at 41 h, 10 µM in “in vitro” is 17.7%. Moreover, in the data set on HCT-8 host cells (Hs18S) (human, 41 h, 10 μM), the “Hs18S ΔCT” value is on record as 0.28.
On the same counts, the results for `O=C1c2c(O)cccc2C([C@@H]2O[C@H](CO)[C@@H](O)[C@H](O)[C@H]2O)c2cc(CO)cc(O)c21` (stereo partly drawn) [ALOIN] are -0.73%, -54.3% and -0.63.
On the same counts, the results for `C[C@@H]1[C@H](O)[C@@H](C)/C=C/C=C/C=C/C=C/C=C/C=C/C=C/[C@H](O[C@@H]2O[C@H](C)[C@@H](O)[C@H](N)[C@@H]2O)C[C@@H]2O[C@](O)(C[C@@H](O)C[C@@H](O)[C@H](O)CC[C@@H](O)C[C@@H](O)CC(=O)O[C@H]1C)C[C@H](O)[C@H]2C(=O)O` [AMPHOTERICIN B] are -4.47%, 7.1% and 0.11.
Take `N#C[C@H](O[C@@H]1O[C@H](CO[C@@H]2O[C@H](CO)[C@@H](O)[C@H](O)[C@H]2O)[C@@H](O)[C@H](O)[C@H]1O)c1ccccc1` [AMYGDALIN]: the inhibition at 10 µM with Cryptosporidium parvum is -15.6%. Also, the cytotoxicity at 10 µM in the data set “in vitro” was determined as 4.8%. Further, the “Hs18S ΔCT” value in the data set on HCT-8 host cells (Hs18S) (setting [1]) is given as 0.07.
On the same counts, the results for `CN1CCCCC1c1ccc(-c2cccnc2)nc1` (stereo not drawn) [ANABASAMINE HYDROCHLORIDE] are 8.75%, 24.3% and 0.40.
Turning to `c1cncc([C@@H]2CCCCN2)c1` [ANABASINE HYDROCHLORIDE], the inhibition at 10 µM in the data set on Cryptosporidium parvum turned out to be 6.88%. Further, the cytotoxicity at 10 µM in the data set “in vitro” was -5.5%. The “Hs18S ΔCT” value with HCT-8 host cells (Hs18S) (setting [1]) was -0.08.
In the case of `C=C1CC[C@@H]2[C@](C)(CO)[C@H](O)CC[C@@]2(C)[C@@H]1C/C=C1/C(=O)OC[C@H]1O` [ANDROGRAPHOLIDE], the inhibition at 10 µM in the data set with Cryptosporidium parvum came to 38.8%. Moreover, in “in vitro”, the cytotoxicity at 41 h, 10 µM turned out to be 5.3%. In the data set with HCT-8 host cells (Hs18S) (human, 41 h, 10 μM), the “Hs18S ΔCT” value was found to be 0.08.
The corresponding values for `C/C=C/c1ccc(OC)cc1` [ANETHOLE] are -5.3%, -5.8% and -0.08.
The corresponding values for `COc1ccc([C@@H](C)C(=O)c2ccc(O)cc2O)cc1` [ANGOLENSIN (R)] are -26.9%, -12.5% and -0.17.
The corresponding values for `COc1ccc2c(=O)c(CC(=O)O)coc2c1` [ANHYDROBRAZILIC ACID] are 11.9%, -0.5% and -0.01.
For `COc1cc(O)cc(OC)c1OC` [ANTIAROL], the inhibition at 10 µM in the data set on Cryptosporidium parvum turned out to be 8.48%. Further, in the data set “in vitro”, the cytotoxicity at 41 h, 10 µM was determined as 6.9%. Also, in the data set with HCT-8 host cells (Hs18S) (human, 41 h, 10 μM), the “Hs18S ΔCT” value is reported as 0.10.
On to `CCCCCC[C@H]1C(=O)O[C@H](C)[C@H](NC(=O)c2cccc(NC=O)c2O)C(=O)O[C@@H](C)[C@@H]1OC(=O)CC(C)C` [ANTIMYCIN A, ANTIMYCIN A (A1 shown)], for which the inhibition at 10 µM in the data set with Cryptosporidium parvum worked out at 10.9%. Further, the cytotoxicity at 10 µM in the data set “in vitro” worked out at 7.7%. For the same compound, in the data set on HCT-8 host cells (Hs18S) (setting [1]), the “Hs18S ΔCT” value amounted to 0.12.
Consider `O=C(O)C1CC([C@@H]2CCCCN2)CN2CCCCC12` (stereo partly drawn) [APHYLLIC ACID], for which the inhibition at 10 µM with Cryptosporidium parvum is -28.5%. For the same compound, the cytotoxicity at 41 h, 10 µM in the data set “in vitro” is 16.1%. Moreover, in the data set with HCT-8 host cells (Hs18S) (human, 41 h, 10 μM), the “Hs18S ΔCT” value is 0.25.
As to `COc1ccc(-c2cc(=O)c3c(O)cc(OC)cc3o2)cc1` [APIGENIN DIMETHYL ETHER], in the data set with Cryptosporidium parvum, the inhibition at 10 µM is -37.8%. Also, the cytotoxicity at 10 µM in the data set “in vitro” is 11.3%. In addition, the “Hs18S ΔCT” value in the data set on HCT-8 host cells (Hs18S) (setting [1]) was determined as 0.17.
Consider `O=c1cc(-c2ccc(O)cc2)oc2cc(O)cc(O)c12` [APIGENIN], for which the inhibition at 10 µM with Cryptosporidium parvum was -44.6%. In addition, the cytotoxicity at 41 h, 10 µM in “in vitro” was 3.9%. Besides, the “Hs18S ΔCT” value with HCT-8 host cells (Hs18S) (human, 41 h, 10 μM) was found to be 0.06.
